Reference: EP2650284A1, “Heterocyclic derivatives as metabotropic glutamate receptor modulators” (Merz Pharma GmbH & Co. KGaA, priority 2012, dated 2013)
Like-named read-outs stand apart in the source and are kept apart here.

Experiments:
[1] = biological target: T1, human metabotropic glutamate receptor mGluR5 (Homo sapiens, UniProt P41594); assay: Cytosolic calcium studies with stably transfected cells (h5CHO), functional assay of mGluR5 receptors; format: cell-based; settings: for EC50: positive modulators, h5CHO cells preincubated with modulator, stimulated by an EC20 concentration of L-glutamate, read-out: hEC50
T1 construct: expressed in transfected cells; host or cells: CHO-K1 (h5CHO), IPTG-inducible
Method in brief: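 IPTG-induced h5CHO (CHO-K1 expressing human mGluR5) loaded with calcium dye; compounds (0.5% DMSO) added 5 min before agonist. NAM IC50 against L-quisqualate at ~EC80; PAM EC50 with EC20 L-glutamate. FLIPR fluorescence, max-minus-min, % of maximal response, logistic fit.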

mGluR5 binding site = biological target: T2, mGluR5 binding site (Rattus norvegicus, UniProt P31424); assay: [3H]-M-MPEP displacement studies on rat cortical membranes; settings: Table A3, [3H]-M-MPEP 2 nM, 4°C for 1 h, median, read-out: Ki (MMPEP)
T2 construct: from tissue; host or cells: cortex of adult male Sprague-Dawley rats, membrane preparation
Procedure: Tissue preparation is performed according to Foster & Wong (Br. J. Pharmacol., 1987, 91, 403-409) with some modifications. Anaesthetised male Sprague-Dawley rats (200-250 g, Janvier, Le Genest-Isle, France) are decapitated and their brains are removed rapidly. The cortex is dissected out and processed as described by Parsons, et al. (J. Pharmacol. Exp. Ther., 1997, 283(3): 1264-1275). For isolation of the cell membranes, the cortices are homogenized in 20 volumes of ice-cold 0.32 M sucrose (Sigma-Aldrich, Taufkirchen, Germany) using a glass-Teflon homogenizer. The homogenate is centrifuged at 1000 x g for 10 minutes, the pellet is discarded and the supernatant centrifuged at 20,000 x g for 20 minutes. The resulting pellet is resuspended in 20 volumes of distilled water and centrifuged for 20 minutes at 8000 x g. The supernatant and the buffy coat are then centrifuged six times (48,000 x g for 20 minutes) in the presence of 5 mM Tris-HCl, pH 7.5. All centrifugation steps are carried out at 4°C. After resuspension in 5 volumes of 5 mM Tris-HCl, pH 7.5, the membrane suspension is frozen rapidly at -80°C.
On the day of assay, the membrane suspensions are thawed, centrifuged (48,000 x g for 20 minutes) and then resuspended in 50 mM Tris-HCl, pH 7.5 (assay buffer). The amount of protein in the final membrane preparation is determined according to the method of Lowry, et al. (J. Biol. Chem., 1951, 193, 256-275). The final concentration used for our studies is 400 µg / ml.
The Tecan robotic system designed for binding assays is loaded with the membrane solution, a 96 well stock plate containing the solutions for bound control (buffer/DMSO 10%), unlabeled MPEP (10 µM) for evaluation of non-specific binding, all compounds to be tested (at 20-fold concentrations), various empty 96-well plates for dilutions and the final assay plates, as well as a 96-well plate filled with the radioligand.
Before performing displacement studies, saturation experiments are performed to determine the equilibrium dissociation constant (Kd, Cheng and Prussoff, Biochem. Pharmacol., 1973, 22: 3099-3108) of [^3H]-M-MPEP, which is a parameter for the affinity of the radioligand to the binding site. On the basis of the saturation experiments, a final [^3H]-M-MPEP concentration of 2 nM was selected.
Firstly, the assay plates are loaded with membrane solution and are shaken at 4°C. The mother plates were then prepared by pipetting the compounds (n = 5) into assay buffer/10% DMSO to obtain the desired final concentrations. After transferring radioligand into the assay plates, the compounds are added (including the non-specific binding control containing MPEP). The final DMSO concentration is always 1 %. The assay plates are incubated and shaken at 4°C for 1 h, before the mixture is exhausted as rapidly as possible via a vacuum manifold using the Multiscreen HTS glass fibre (type B) high flow filter plates (Millipore, Schwalbach, Germany) under a constant vacuum of 450 mbar. The membranes are washed four times with cold assay buffer (100 µL). 50 µL of Ultima Gold scintillation cocktail (PerkinElmer) is added to the wet filter plates and incubated at rt overnight before counting the disintegration per minutes using a liquid scintillation counter (MicroBeta, PerkinElmer).
For the evaluation of the test compound binding affinity to the mGluR5 binding site and its potency to displace [^3H]-M-MPEP, the measured radioactivity of the radioligand alone was set as 100% bound control and the non-specific binding of the radioligand represented the 0% control. The residual radioactivity after displacement of the test compound was then corrected with respect to the set controls. Data are given as median IC50 and Ki, respectively.

mGluR5 receptors = biological target: T3, mGluR5 receptors (Rattus norvegicus, UniProt P31424); assay: Cytosolic calcium studies with astrocytes (FLIPR), functional assay of mGluR5 receptors; format: cell-based
T3 construct: Primary astrocyte cultures are prepared from cortices of newborn rats; endogenous in cells; host or cells: primary cortical astrocytes from Sprague-Dawley rat pups (2-4 d old)
Method in brief: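 Rat cortical primary astrocytes at 14-15 DIV, loaded with Ca-sensitive dye for 2 h at RT, pH 7.3 buffer; FLIPR fluorescence after L-quisqualate (100 nM), antagonists pre-incubated 10 min. PAMs: quisqualate curves ± 10 µM modulator, or modulator curves at fixed 10-30 nM quisqualate. Max-min responses as % control, logistic fit.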

[2] = Table A3 (SAMs / very weak PAMs), agonist EC50 shift with 10 µM modulator or vehicle, h5CHO cells
[3] = Table A1, left shift of quisqualate EC50 in the presence and absence of 10 µM modulator
[4] = Table A1, positive modulators, fixed concentration of quisqualate (normally 10-30 nM), read-out: rEC50
[5] = Table A1, left shift of agonist EC50, dose response curves in the presence of 10 µM modulator or vehicle, h5CHO cells

T1 sequence (P41594 21-1212): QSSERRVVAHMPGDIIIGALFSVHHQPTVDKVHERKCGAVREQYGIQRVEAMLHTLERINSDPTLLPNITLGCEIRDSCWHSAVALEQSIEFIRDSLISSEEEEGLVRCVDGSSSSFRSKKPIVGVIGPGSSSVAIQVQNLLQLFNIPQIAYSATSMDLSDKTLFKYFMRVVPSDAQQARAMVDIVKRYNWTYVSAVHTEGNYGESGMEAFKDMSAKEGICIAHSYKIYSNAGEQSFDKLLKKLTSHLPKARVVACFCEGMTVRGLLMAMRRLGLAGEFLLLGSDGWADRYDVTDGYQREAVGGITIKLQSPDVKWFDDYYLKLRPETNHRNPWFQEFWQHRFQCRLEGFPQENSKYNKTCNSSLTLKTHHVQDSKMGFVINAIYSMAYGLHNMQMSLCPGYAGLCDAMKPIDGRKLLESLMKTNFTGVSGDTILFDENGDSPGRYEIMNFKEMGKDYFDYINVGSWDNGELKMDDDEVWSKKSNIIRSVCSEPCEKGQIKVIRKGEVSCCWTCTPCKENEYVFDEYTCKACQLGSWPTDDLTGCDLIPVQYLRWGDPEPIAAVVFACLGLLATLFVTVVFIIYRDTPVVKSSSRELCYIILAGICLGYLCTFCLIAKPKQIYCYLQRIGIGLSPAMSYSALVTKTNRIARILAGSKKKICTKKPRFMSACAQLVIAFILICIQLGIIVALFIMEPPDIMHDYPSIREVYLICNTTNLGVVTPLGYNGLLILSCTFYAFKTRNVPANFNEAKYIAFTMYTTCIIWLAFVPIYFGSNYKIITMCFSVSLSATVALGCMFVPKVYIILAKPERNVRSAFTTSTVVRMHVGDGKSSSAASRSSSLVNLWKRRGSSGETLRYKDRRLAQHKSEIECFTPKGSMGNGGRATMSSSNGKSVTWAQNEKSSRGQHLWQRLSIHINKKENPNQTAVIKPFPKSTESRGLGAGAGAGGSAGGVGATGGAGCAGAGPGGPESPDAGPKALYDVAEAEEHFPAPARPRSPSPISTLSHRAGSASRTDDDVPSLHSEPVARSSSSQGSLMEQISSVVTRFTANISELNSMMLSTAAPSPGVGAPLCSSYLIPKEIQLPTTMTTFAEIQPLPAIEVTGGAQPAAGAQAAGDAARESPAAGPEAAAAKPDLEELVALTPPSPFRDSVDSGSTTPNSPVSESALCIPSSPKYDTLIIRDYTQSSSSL
T3 sequence (P31424 21-1203): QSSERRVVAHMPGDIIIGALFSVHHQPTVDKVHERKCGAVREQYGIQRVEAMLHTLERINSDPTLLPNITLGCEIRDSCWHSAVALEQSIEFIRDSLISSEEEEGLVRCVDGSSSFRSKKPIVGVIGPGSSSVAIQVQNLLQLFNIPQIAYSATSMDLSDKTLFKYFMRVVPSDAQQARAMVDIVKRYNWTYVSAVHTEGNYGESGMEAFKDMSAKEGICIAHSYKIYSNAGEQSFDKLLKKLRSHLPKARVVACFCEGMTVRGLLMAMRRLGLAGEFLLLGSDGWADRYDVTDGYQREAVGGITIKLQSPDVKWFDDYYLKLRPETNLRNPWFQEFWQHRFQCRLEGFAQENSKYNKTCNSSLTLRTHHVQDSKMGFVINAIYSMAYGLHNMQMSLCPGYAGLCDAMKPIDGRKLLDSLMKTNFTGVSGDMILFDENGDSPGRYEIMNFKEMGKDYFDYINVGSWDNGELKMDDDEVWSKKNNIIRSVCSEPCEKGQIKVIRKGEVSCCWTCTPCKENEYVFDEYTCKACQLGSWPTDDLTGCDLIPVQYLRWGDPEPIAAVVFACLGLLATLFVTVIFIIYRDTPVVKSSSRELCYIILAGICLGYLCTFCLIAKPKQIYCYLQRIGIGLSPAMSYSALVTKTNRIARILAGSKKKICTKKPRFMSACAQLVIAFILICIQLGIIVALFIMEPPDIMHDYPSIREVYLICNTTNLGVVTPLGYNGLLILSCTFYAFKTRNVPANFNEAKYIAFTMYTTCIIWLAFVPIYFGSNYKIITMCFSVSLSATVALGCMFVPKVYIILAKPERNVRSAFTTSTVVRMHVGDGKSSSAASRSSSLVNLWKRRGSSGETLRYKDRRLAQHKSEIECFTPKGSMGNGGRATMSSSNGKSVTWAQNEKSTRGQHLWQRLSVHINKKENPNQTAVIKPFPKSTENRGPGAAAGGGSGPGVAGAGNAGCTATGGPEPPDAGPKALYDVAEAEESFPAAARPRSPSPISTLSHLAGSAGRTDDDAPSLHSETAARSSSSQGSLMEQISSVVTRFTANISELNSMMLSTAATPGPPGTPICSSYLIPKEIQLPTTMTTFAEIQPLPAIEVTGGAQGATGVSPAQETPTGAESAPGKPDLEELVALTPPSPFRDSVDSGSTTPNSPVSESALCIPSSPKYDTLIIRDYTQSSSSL
T2 sequence (P31424 21-1203): as above

Compound	r left shift (mGluR5 receptors; [3])	EC50 (mGluR5 receptors; [4])	h left shift [1, 5]	EC50 ([1]; Table A1)	further results
(rac)-cis-Methyl 3-((3-fluorophenyl)ethynyl)-6a,7,9,9a-tetrahydro-5H-pyrrolo[3,4-h]quinoline-8(6H)-carboxylate [Example 32]	–	–	–	–	h left shift [1, 2]: 0.9-fold; Ki (mGluR5 binding site): 49.3 nM
COC(=O)N1CC[C@H]2CCc3cc(C#Cc4ccccc4)cnc3[C@H]21 (racemic) [Example 80, (rac)-cis-Methyl 7-(phenylethynyl)-2,3,3a,4,5,9b-hexahydro-1H-pyrrolo[3,2-h]quinoline-1-carboxylate]	–	–	–	–	r left shift (mGluR5 receptors; Table A3 (SAMs / very weak PAMs), quisqualate EC50 shift with 10 µM modulator): 1.8-fold; EC50 (mGluR5 receptors; Table A3, given in brackets where Ki is n.d., read-out: r EC50): 35.5 nM; h left shift [1, 2]: 1.5-fold
CCN1CCO[C@@H]2c3cc(C#Cc4ccccc4)cnc3CC[C@@H]21 (racemic) [Example 14, (rac)-cis-4-Ethyl-9-(phenylethynyl)-3,4,4a,5,6,10b-hexahydro-2H-[1,4]oxazino[2,3-f]quinoline]	3.6-fold	580 nM	2.2-fold	659 nM	–
CN(C)S(=O)(=O)N1CCc2ncc(C#Cc3ccccc3)cc2C1 [Example 52, N,N-Dimethyl-3-(phenylethynyl)-7,8-dihydro-1,6-naphthyridine-6(5H)-sulfonamide]	1.8-fold	83.1 nM	2.0-fold	240 nM	–
CN(C)C(=O)N1CCc2ncc(C#Cc3cccc(C#N)c3)cc2C1 [Example 46, 3-((3-Cyanophenyl)ethynyl)-N,N-dimethyl-7,8-dihydro-1,6-naphthyridine-6(5H)-carboxamide]	–	–	–	–	IC50 (mGluR5 receptors; Table A2, pre-incubated 10 minutes before L-quisqualate (100 nM), read-out: rIC50): 20.8 nM; IC50 ([1]; Table A2, negative modulation, compounds added 5 minutes before L-quisqualic acid (~80% of the maximal signal), h5CHO cells, read-out: hIC50): 50.8 nM
CN1CCO[C@@H]2c3cc(C#Cc4ccccc4)cnc3CC[C@@H]21 (racemic) [Example 13, (rac)-cis-4-Methyl-9-(phenylethynyl)-3,4,4a,5,6,10b-hexahydro-2H-[1,4]oxazino[2,3-f]quinoline]	1.7-fold	–	1.7-fold	425 nM	–
COC(=O)N1CC2CCc3ncc(C#Cc4ccccc4)cc3C2C1 (centres unmarked) [Example 30, Methyl 8-(phenylethynyl)-3,3a,4,5-tetrahydro-1H-pyrrolo[3,4-f]quinoline-2(9bH)-carboxylate]	3.0-fold	256 nM	2.5-fold	345 nM	–
COC(=O)N1CC[C@H]2c3ncc(C#Cc4cccc(F)c4)cc3CC[C@H]21 [Example 72, (6aR,9aR)-Methyl 3-((3-fluorophenyl)ethynyl)-6,6a,9,9a-tetrahydro-5H-pyrrolo[2,3-h]quinoline-7(8H)-carboxylate]	1.3-fold	27.3 nM	1.7-fold	–	–

Continued, in another order:

r left shift (mGluR5 receptors; [3])	EC50 (mGluR5 receptors; [4])	h left shift [1, 5]	EC50 ([1]; Table A1)	Compound	further results
3.6-fold	136 nM	2.0-fold	36.9 nM	FC(F)(F)CCN1CCO[C@@H]2c3cc(C#Cc4ccccc4)cnc3CC[C@@H]21 (racemic) [Example 25, (rac)-cis-9-(Phenylethynyl)-4-(3,3,3-trifluoropropyl)-3,4,4a,5,6,10b-hexahydro-2H-[1,4]oxazino[2,3-f]quinoline]	–
3.3-fold	508 nM	2.5-fold	472 nM	CC(C)(C)[S+]([O-])N1CCc2ncc(C#Cc3ccccc3)cc2C1 (racemic) [Example 37, (rac)-6-(tert-Butylsulfinyl)-3-(phenylethynyl)-5,6,7,8-tetrahydro-1,6-naphthyridine]	–
2.8-fold	67.9 nM	2.3-fold	171 nM	CC(C)(C)C(=O)N1CCc2ncc(C#Cc3ccccc3)cc2C1 [Example 34, 2,2-Dimethyl-1-(3-(phenylethynyl)-7,8-dihydro-1,6-naphthyridin-6(5H)-yl)propan-1-one]	–
1.8-fold	–	2.2-fold	1800 nM	CCCN1CCO[C@H]2c3cc(C#Cc4ccccc4)cnc3CC[C@@H]21 (racemic) [Example 22, (rac)-trans-9-(Phenylethynyl)-4-propyl-3,4,4a,5,6,10b-hexahydro-2H-[1,4]oxazino[2,3-f]quinoline]	–
4.4-fold	599 nM	2.9-fold	958 nM	COC(=O)N1CCO[C@@H]2c3cc(C#Cc4ccccc4)cnc3CC[C@@H]21 (racemic) [Example 26, (rac)-cis-Methyl 9-(phenylethynyl)-4a,5,6,10b-tetrahydro-2H-[1,4]oxazino[2,3-f]quinoline-4(3H)-carboxylate]	–
